Laboratory results published in EP2408450B1, “ALPHA-(N-SULFONAMIDO)ACETAMIDE COMPOUND AS AN INHIBITOR OF BETA AMYLOID PEPTIDE PRODUCTION” (Bristol-Myers Squibb Company, priority 2009, dated 2010).
Where two headings read alike, the source gives them in different places.

Columns and labels:
[1] = Metabolic stability in liver microsomes (cynomolgus monkey); assay type: in vitro ADME
Method: (§1) Mouse, rat, dog, human, and cynomolgus monkey liver microsomes were obtained from BD Gentest (Woburn, MA). The lot numbers were 13 (mouse), 8 (rat), 8 (dog), 19 and 26 (human), and 3 (cynomolgus monkey). […] The reaction, conducted in triplicate, was initiated by the addition of NADPH followed by incubation at 37°C for 50 minutes. Aliquots of samples (0.25 mL) were taken at 0, 5, 10, 20, 30, 40 and 50 minutes and the reaction was quenched by the addition of 3 volumes of acetonitrile. […] The reaction, conducted in triplicate, was initiated by the addition of NADPH followed by incubation at 37 °C for 50 minutes. Aliquots of samples (0.25 mL) were taken at 0, 5, 10, 20, 30, 40 and 50 minutes and the reaction was quenched by the addition of 3 volumes of acetonitrile. […] The reaction, conducted in duplicate, was initiated by the addition of NADPH followed by incubation at 37°C for 40 minutes. Aliquots of samples (0.25 mL) were taken at 0, 5, 10, 15, 20, 30 and 40 minutes and the reaction was quenched by the addition of 3 volumes of acetonitrile. For all studies, samples were analyzed immediately by an LC/MS method.

[2] = Metabolic stability in liver microsomes (human); assay type: in vitro ADME
Method: as §1

brain Aβ40 = experiment: Rat brain Aβ40 assay (252-TSD ELISA); assay type: in vivo; conditions: for Day 7 5hr Brain Aβ40 (%Veh): 7 days; for Terminal Brain Aβ40 (%Veh) 5hr: 5 hours after the fourth dose; for Terminal Brain Aβ40 (%Veh) 12hr: 12 hours after the third dose; for Terminal Brain Aβ40 (%Veh) 24hr: 24 hours after the third dose; for brain Aβ40, % of baseline Aβ40 values: 2 to 24 hours post dosing
Method: All procedures were done in concordance with ACUC guidelines. […] Plasma was obtained after centrifugation. […] CSF samples were centrifuged to remove cells or debris prior to dilution at 1:2 in 4% BSA and frozen for subsequent analysis. […] Rat brain (half a hemisphere) was homogenized using a polytron at 4 mL/g in PBS, pH 7.8, 2% CHAPS, complete protease inhibitors (Roche). […] White Microlite II ELISA plates (Thermo Electron) were incubated with 50 µg/mL TSD9S3.2 antibody in PBS for 1 hour at 37°C. Plates were blocked with 200 µL 5% bovine serum albumin (BSA; weight/volume prepared in PBS) for 2 hours at room temperature on a plate shaker and then washed 5 times with 500 µL/well of PBS, 0.05% Tween-20. Clarified brain homogenates were loaded in 6 replicates of 50 µL per well and incubated for 1 hour at room temperature. […] Samples were normalized to a brain homogenate reference placed on each plate.

[3] = Metabolic stability in liver microsomes (dog); assay type: in vitro ADME
Method: as §1

[4] = Compound plasma levels / AUC in rat studies; assay type: in vivo; conditions: for concentration at 5 h: female, Sprague-Dawley, rat, plasma, oral
Method: All procedures were done in concordance with ACUC guidelines. […] Plasma was obtained after centrifugation. […] CSF samples were centrifuged to remove cells or debris prior to dilution at 1:2 in 4% BSA and frozen for subsequent analysis.
Animals were euthanized 12 or 24 hours after the third dose or 5 hours after the fourth dose. […] Table 2: Summary of Results from 4-day Rat Studies

CYP3A4 mRNA = experiment: Induction of CYP3A4 mRNA in Fa2N-4 cells; conditions: Fa2N-4 hepatocytes, 3 days
Method: [[2-fluoro-4-(1,2,4-oxadiazol-3-yl)phenyl]methyl]amino]-5,5,5-trifluoropentanamide to induce CYP3A4 mRNA was evaluated in vitro using the Fa2N-4 cell line. The Fa2N-4 cell is an immortalized human hepatocyte line that was created using the Simian virus 40 (SV40) T antigen as the immortalizing gene, while retaining basal expression and inducibility of several CYP isoforms, including CYP3A4. Fa2N-4 cells and MFE Support Media F were provided by XenoTech, LLC (Lenexa, Kansas).
Upon the receipt of the cells, the media were changed and the cells maintained overnight in a humidified, CO2-supplied incubator. After this adaptation period, the cells were examined under a light microscope and a determination was made as to whether the cells were morphologically normal and suitable for use. During the treatment period, the cells were visually inspected on a daily basis; cellular morphology, confluency, and signs of toxicity due to the test article were documented as necessary. […] Rifampicin (10 µM), a prototypical CYP3A4 inducer, was used as the positive control. Fa2N-4 cells were exposed to the test articles for a total of 3 days. The culture medium was replaced daily with fresh medium containing the test articles. After a total of ~72 hours of exposure, medium was aspirated and the cells washed once with warm phosphate buffered saline solution before adding the cell lysis buffer (Qiagen, Valencia, CA).

[5] = rat, Study No. 2, 100 mg/kg/day

NC(=O)[C@@H](CCC(F)(F)F)N(Cc1ccc(-c2ncon2)cc1F)S(=O)(=O)c1ccc(Cl)cc1 [(2R)-2-[[(4-chlorophenyl)sulfonyl][[2-fluoro-4-(1,2,4-oxadiazol-3-yl)phenyl]methyl]amino]-5,5,5-trifluoropentanamide]
rate of in vitro metabolism ([1]; cynomolgus monkey microsomes, NADPH-fortified, 1 µM): 495 pmol/min/mg protein | predicted in vivo (serum) clearance ([1]; cynomolgus monkey, scaled from liver microsome rate): ~39 mL/min/kg | rate of in vitro metabolism ([2]; human microsomes, NADPH-fortified, 1 µM): 32 pmol/min/mg protein | predicted in vivo (serum) clearance ([2]; human, scaled from liver microsome rate): ~8 mL/min/kg | Day 7 5hr Brain Aβ40 (%Veh) (brain Aβ40; Rat Study No. 3, 30 mg/kg/day): 13%Veh | Day 7 5hr Brain Aβ40 (%Veh) (brain Aβ40; Rat Study No. 3, 300 mg/kg/day): 13%Veh | ED50 (brain Aβ40; acute rat studies, read-out: ED50 for reduction of brain Aβ40): 1 to 10 mg/kg | Brain % Aβ AUC Reduction (brain Aβ40; rat, Study No. 2, 3 mg/kg/day): 57% | Terminal Brain Aβ40 (%Veh) 5hr (brain Aβ40; rat, Study No. 2, 3 mg/kg/day): 16%Veh | Terminal Brain Aβ40 (%Veh) 12hr (brain Aβ40; rat, Study No. 2, 3 mg/kg/day): 34%Veh | Terminal Brain Aβ40 (%Veh) 24hr (brain Aβ40; rat, Study No. 2, 3 mg/kg/day): 94%Veh | Brain % Aβ AUC Reduction (brain Aβ40; rat, Study No. 2, 10 mg/kg/day): 91% | Terminal Brain Aβ40 (%Veh) 5hr (brain Aβ40; rat, Study No. 2, 10 mg/kg/day): 6%Veh | Terminal Brain Aβ40 (%Veh) 12hr (brain Aβ40; rat, Study No. 2, 10 mg/kg/day): 4%Veh | Terminal Brain Aβ40 (%Veh) 24hr (brain Aβ40; rat, Study No. 2, 10 mg/kg/day): 23%Veh | Brain % Aβ AUC Reduction (brain Aβ40; rat, Study No. 2, 30 mg/kg/day): 93% | Terminal Brain Aβ40 (%Veh) 5hr (brain Aβ40; rat, Study No. 2, 30 mg/kg/day): 6%Veh | Terminal Brain Aβ40 (%Veh) 12hr (brain Aβ40; rat, Study No. 2, 30 mg/kg/day): 4%Veh | Terminal Brain Aβ40 (%Veh) 24hr (brain Aβ40; rat, Study No. 2, 30 mg/kg/day): 15%Veh | Brain % Aβ AUC Reduction (brain Aβ40; [5]): 96% | Terminal Brain Aβ40 (%Veh) 5hr (brain Aβ40; [5]): 3%Veh | Terminal Brain Aβ40 (%Veh) 12hr (brain Aβ40; [5]): 3%Veh | Terminal Brain Aβ40 (%Veh) 24hr (brain Aβ40; [5]): 7%Veh | Brain % Aβ AUC Reduction (brain Aβ40; rat, Study No.1, 3 mg/kg/day): 49% | Terminal Brain Aβ40 (%Veh) 5hr (brain Aβ40; rat, Study No.1, 3 mg/kg/day): 39%Veh | Terminal Brain Aβ40 (%Veh) 12hr (brain Aβ40; rat, Study No.1, 3 mg/kg/day): 35%Veh | Terminal Brain Aβ40 (%Veh) 24hr (brain Aβ40; rat, Study No.1, 3 mg/kg/day): 92%Veh | Brain % Aβ AUC Reduction (brain Aβ40; rat, Study No.1, 10 mg/kg/day): 85% | Terminal Brain Aβ40 (%Veh) 5hr (brain Aβ40; rat, Study No.1, 10 mg/kg/day): 12%Veh | Terminal Brain Aβ40 (%Veh) 12hr (brain Aβ40; rat, Study No.1, 10 mg/kg/day): 9%Veh | Terminal Brain Aβ40 (%Veh) 24hr (brain Aβ40; rat, Study No.1, 10 mg/kg/day): 28%Veh | Brain % Aβ AUC Reduction (brain Aβ40; rat, Study No.1, 30 mg/kg/day): 90% | Terminal Brain Aβ40 (%Veh) 5hr (brain Aβ40; rat, Study No.1, 30 mg/kg/day): 8%Veh | Terminal Brain Aβ40 (%Veh) 12hr (brain Aβ40; rat, Study No.1, 30 mg/kg/day): 9%Veh | Terminal Brain Aβ40 (%Veh) 24hr (brain Aβ40; rat, Study No.1, 30 mg/kg/day): 13%Veh | change in brain Aβ40 (brain Aβ40; rat, single dose 1 mg/kg): did not cause a statistically significant change | brain Aβ40, % of baseline Aβ40 values (brain Aβ40; rat, single dose 10 mg/kg): less than 25% | brain Aβ40, % of vehicle control (brain Aβ40; rat, single dose 30 mg/kg): 16% | brain Aβ40, % of baseline Aβ40 values (brain Aβ40; rat, single dose 100 mg/kg): less than 25% | Brain Aβ40 levels at termination, % of the vehicle control (brain Aβ40; rats, 30 or 300 mg/kg/day, 5 hours post dose): 13% | Brain Aβ40 AUC reduction (brain Aβ40; subchronic rat studies, doses of 10 mg/kg/day or higher): greater than 85% | rate of in vitro metabolism ([3]; dog microsomes, NADPH-fortified, 1 µM): 40 pmol/min/mg protein | predicted in vivo (serum) clearance ([3]; dog, scaled from liver microsome rate): ~14 mL/min/kg | concentration at 5 h ([4]; 30 mg/kg/day, Rat Study No. 3, 30 mg/kg/day, group terminated Day 4, read-out: Plasma Conc. 5hr post dose Day 1): 5.9 µM | concentration at 5 h ([4]; 30 mg/kg/day, Rat Study No. 3, 30 mg/kg/day, group terminated Day 4, read-out: Plasma Conc. 5hr post dose Day 4): 5.6 µM | concentration at 5 h ([4]; 30 mg/kg/day, Rat Study No. 3, 30 mg/kg/day, group terminated Day 7, read-out: Plasma Conc. 5hr post dose Day 1): 7.2 µM | concentration at 5 h ([4]; 30 mg/kg/day, Rat Study No. 3, 30 mg/kg/day, group terminated Day 7, read-out: Plasma Conc. 5hr post dose Day 7): 6.2 µM | concentration at 5 h ([4]; 300 mg/kg/day, Rat Study No. 3, 300 mg/kg/day, group terminated Day 4, read-out: Plasma Conc. 5hr post dose Day 1): 12 µM | concentration at 5 h ([4]; 300 mg/kg/day, Rat Study No. 3, 300 mg/kg/day, group terminated Day 4, read-out: Plasma Conc. 5hr post dose Day 4): 10 µM | concentration at 5 h ([4]; 300 mg/kg/day, Rat Study No. 3, 300 mg/kg/day, group terminated Day 7, read-out: Plasma Conc. 5hr post dose Day 1): 14 µM | concentration at 5 h ([4]; 300 mg/kg/day, Rat Study No. 3, 300 mg/kg/day, group terminated Day 7, read-out: Plasma Conc. 5hr post dose Day 7): 11 µM | compound plasma levels 5 hours after the first and fourth dose ([4]; rats, 30 or 300 mg/kg/day): similar | increase in CYP3A4 mRNA expression over the vehicle control (CYP3A4 mRNA; highest concentration tested (20 µM)): 2.6 fold | induction of CYP3A4 (CYP3A4 mRNA; lower concentrations (≤ 8.0 µM)): ≤ 2.0 fold
